Data taken from ChEMBL document CHEMBL1201862, “PubChem BioAssay data set” (2004).
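Following 48 hours of exposure in 96-well plates, responses at five concentrations were used to interpolate endpoints linearly. Abbreviation: GI50, concentration required for 50% inhibition of growth.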 Calls of active or inactive are those of the source. Cut-off read from the data, not from the text of the source: active = GI50 up to about 1.1 µM and inactive = higher.

What was measured:
Test in all cases: NCI-60 cell line screen, 48 h
NCI/ADR-RES = test system: NCI/ADR-RES
RXF 393 = test system: RXF 393
KM12 = test system: KM12
A498 = test system: A498
HOP-62 = test system: HOP-62
MDA-MB-435 = test system: MDA-MB-435
K562 = test system: K562
A549 = test system: A549
NCI-H23 = test system: NCI-H23
LOX IMVI = test system: LOX IMVI
CCRF-CEM = test system: CCRF-CEM
MDA-MB-231 = test system: MDA-MB-231
SN12C = test system: SN12C
HCT-15 = test system: HCT-15
UO-31 = test system: UO-31
RPMI-8226 = test system: RPMI-8226
OVCAR-5 = test system: OVCAR-5
Hs-578T = test system: Hs-578T
T47D = test system: T47D
NCI-H522 = test system: NCI-H522
HL-60 = test system: HL-60
786-0 = test system: 786-0
TK-10 = test system: TK-10
EKVX = test system: EKVX
MOLT-4 = test system: MOLT-4
IGROV-1 = test system: IGROV-1
SK-MEL-2 = test system: SK-MEL-2
COLO 205 = test system: COLO 205
NCI-H226 = test system: NCI-H226
SNB-19 = test system: SNB-19
SK-OV-3 = test system: SK-OV-3
SW-620 = test system: SW-620
U-251 = test system: U-251
OVCAR-4 = test system: OVCAR-4
HCT-116 = test system: HCT-116
PC-3 = test system: PC-3
ACHN = test system: ACHN
SR = test system: SR
SF-268 = test system: SF-268
UACC-62 = test system: UACC-62
SK-MEL-5 = test system: SK-MEL-5
SF-539 = test system: SF-539
DU-145 = test system: DU-145
HT-29 = test system: HT-29
SNB-75 = test system: SNB-75
HCC 2998 = test system: HCC 2998
MDA-N = test system: MDA-N
SK-MEL-28 = test system: SK-MEL-28
Malme-3M = test system: Malme-3M
CAKI-1 = test system: CAKI-1
SF-295 = test system: SF-295
NCI-H460 = test system: NCI-H460
HOP-92 = test system: HOP-92
OVCAR-3 = test system: OVCAR-3
M14 = test system: M14
MCF7 = test system: MCF7
OVCAR-8 = test system: OVCAR-8
UACC-257 = test system: UACC-257

CC1(C)CC(=O)C2=C(C1)OC1=C(CC(C)(C)CC1=O)C2c1ccccc1[N+](=O)[O-] (stereo not given)
GI50 (NCI/ADR-RES): > 100 µM (inactive)
GI50 (RXF 393): > 100 µM (inactive)
GI50 (KM12): > 100 µM (inactive)
GI50 (A498): > 100 µM (inactive)
GI50 (HOP-62): > 100 µM (inactive)
GI50 (MDA-MB-435): > 100 µM (inactive)
GI50 (K562): > 100 µM (inactive)
GI50 (A549): > 100 µM (inactive)
GI50 (NCI-H23): > 100 µM (inactive)
GI50 (LOX IMVI): > 100 µM (inactive)
GI50 (CCRF-CEM): > 100 µM (inactive)
GI50 (MDA-MB-231): > 100 µM (inactive)
GI50 (SN12C): > 100 µM (inactive)
GI50 (HCT-15): > 100 µM
GI50 (UO-31): 2 µM (inactive)
GI50 (RPMI-8226): > 100 µM (inactive)
GI50 (OVCAR-5): > 100 µM (inactive)
GI50 (Hs-578T): > 100 µM (inactive)
GI50 (T47D): > 100 µM (inactive)
GI50 (NCI-H522): > 100 µM (inactive)
GI50 (HL-60): > 100 µM (inactive)
GI50 (786-0): > 100 µM (inactive)
GI50 (TK-10): > 100 µM (inactive)
GI50 (EKVX): > 100 µM (inactive)
GI50 (MOLT-4): > 100 µM (inactive)
GI50 (IGROV-1): > 100 µM (inactive)
GI50 (SK-MEL-2): > 100 µM (inactive)
GI50 (COLO 205): > 100 µM (inactive)
GI50 (NCI-H226): > 100 µM (inactive)
GI50 (SNB-19): > 100 µM (inactive)
GI50 (SK-OV-3): > 100 µM (inactive)
GI50 (SW-620): > 100 µM (inactive)
GI50 (U-251): > 100 µM (inactive)
GI50 (OVCAR-4): > 100 µM (inactive)
GI50 (HCT-116): > 100 µM (inactive)
GI50 (PC-3): > 100 µM (inactive)
GI50 (ACHN): > 100 µM (inactive)
GI50 (SR): > 100 µM (inactive)
GI50 (SF-268): > 100 µM (inactive)
GI50 (UACC-62): > 100 µM (inactive)
GI50 (SK-MEL-5): > 100 µM (inactive)
GI50 (SF-539): > 100 µM (inactive)
GI50 (DU-145): > 100 µM (inactive)
GI50 (HT-29): > 100 µM (inactive)
GI50 (SNB-75): > 100 µM (inactive)
GI50 (HCC 2998): > 100 µM (inactive)
GI50 (MDA-N): > 100 µM (inactive)
GI50 (SK-MEL-28): > 100 µM (inactive)
GI50 (Malme-3M): > 100 µM (inactive)
GI50 (CAKI-1): > 100 µM (inactive)
GI50 (SF-295): > 100 µM (inactive)
GI50 (NCI-H460): > 100 µM (inactive)
GI50 (HOP-92): > 100 µM (inactive)
GI50 (OVCAR-3): > 100 µM (inactive)
GI50 (M14): > 100 µM (inactive)

O=[N+]([O-])/C(C(Cl)=C(Cl)Cl)=C1\NCCO1
GI50 (NCI/ADR-RES): > 100 µM (inactive)
GI50 (RXF 393): 90.4 µM (inactive)
GI50 (KM12): > 100 µM (inactive)
GI50 (A498): > 100 µM (inactive)
GI50 (HOP-62): > 100 µM (inactive)
GI50 (MDA-MB-435): > 100 µM (inactive)
GI50 (K562): > 100 µM (inactive)
GI50 (A549): > 100 µM (inactive)
GI50 (NCI-H23): > 100 µM (inactive)
GI50 (LOX IMVI): > 100 µM (inactive)
GI50 (CCRF-CEM): 22.9 µM (inactive)
GI50 (MDA-MB-231): > 100 µM (inactive)
GI50 (SN12C): > 100 µM (inactive)
GI50 (HCT-15): > 100 µM
GI50 (MCF7): > 100 µM (inactive)
GI50 (UO-31): > 100 µM (inactive)
GI50 (RPMI-8226): > 100 µM (inactive)
GI50 (OVCAR-5): > 100 µM (inactive)
GI50 (Hs-578T): 47.5 µM (inactive)
GI50 (T47D): 59.4 µM (inactive)
GI50 (NCI-H522): > 100 µM (inactive)
GI50 (OVCAR-8): > 100 µM (inactive)
GI50 (HL-60): 81.5 µM (inactive)
GI50 (786-0): > 100 µM (inactive)
GI50 (TK-10): > 100 µM (inactive)
GI50 (EKVX): > 100 µM (inactive)
GI50 (MOLT-4): 69.5 µM (inactive)
GI50 (UACC-257): > 100 µM (inactive)
GI50 (IGROV-1): > 100 µM (inactive)
GI50 (SK-MEL-2): > 100 µM (inactive)
GI50 (COLO 205): > 100 µM (inactive)
GI50 (NCI-H226): 39.3 µM (inactive)
GI50 (SNB-19): > 100 µM (inactive)
GI50 (SK-OV-3): > 100 µM (inactive)
GI50 (U-251): > 100 µM (inactive)
GI50 (OVCAR-4): 35.1 µM (inactive)
GI50 (HCT-116): 87.5 µM (inactive)
GI50 (PC-3): > 100 µM (inactive)
GI50 (ACHN): > 100 µM (inactive)
GI50 (SR): > 100 µM (inactive)
GI50 (SF-268): > 100 µM (inactive)
GI50 (UACC-62): 35.7 µM (inactive)
GI50 (SK-MEL-5): > 100 µM (inactive)
GI50 (SF-539): > 100 µM (inactive)
GI50 (DU-145): > 100 µM (inactive)
GI50 (HT-29): > 100 µM (inactive)
GI50 (HCC 2998): > 100 µM (inactive)
GI50 (MDA-N): > 100 µM (inactive)
GI50 (SK-MEL-28): > 100 µM (inactive)
GI50 (Malme-3M): 45.8 µM (inactive)
GI50 (CAKI-1): > 100 µM (inactive)
GI50 (SF-295): > 100 µM (inactive)
GI50 (NCI-H460): > 100 µM (inactive)
GI50 (OVCAR-3): 52.5 µM (inactive)
GI50 (M14): > 100 µM (inactive)
